Calls of active or inactive are those of the source.
Experiments:
[1] = target: 72 kDa type IV collagenase (Homo sapiens, UniProt P08253); test: Dose Response validation of uHTS RPN11 inhibitor hits using a MMP-2 Fluorescence assay.; format: functional
[2] = target: Prothrombin (Bos taurus, UniProt P00735); test: thrombin protease inhibitors – biochemical, fluorescence polarization, uHTS hits, dose response (AID 602369); format: functional
[3] = target: Large T antigen (Simian virus 40, UniProt P03070); format: functional, Betapolyomavirus macacae;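 also: Confirmatory-stage PubChem screen for compounds that inhibit SV40 T antigen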
Sequence of Large T antigen (P03070 whole entry): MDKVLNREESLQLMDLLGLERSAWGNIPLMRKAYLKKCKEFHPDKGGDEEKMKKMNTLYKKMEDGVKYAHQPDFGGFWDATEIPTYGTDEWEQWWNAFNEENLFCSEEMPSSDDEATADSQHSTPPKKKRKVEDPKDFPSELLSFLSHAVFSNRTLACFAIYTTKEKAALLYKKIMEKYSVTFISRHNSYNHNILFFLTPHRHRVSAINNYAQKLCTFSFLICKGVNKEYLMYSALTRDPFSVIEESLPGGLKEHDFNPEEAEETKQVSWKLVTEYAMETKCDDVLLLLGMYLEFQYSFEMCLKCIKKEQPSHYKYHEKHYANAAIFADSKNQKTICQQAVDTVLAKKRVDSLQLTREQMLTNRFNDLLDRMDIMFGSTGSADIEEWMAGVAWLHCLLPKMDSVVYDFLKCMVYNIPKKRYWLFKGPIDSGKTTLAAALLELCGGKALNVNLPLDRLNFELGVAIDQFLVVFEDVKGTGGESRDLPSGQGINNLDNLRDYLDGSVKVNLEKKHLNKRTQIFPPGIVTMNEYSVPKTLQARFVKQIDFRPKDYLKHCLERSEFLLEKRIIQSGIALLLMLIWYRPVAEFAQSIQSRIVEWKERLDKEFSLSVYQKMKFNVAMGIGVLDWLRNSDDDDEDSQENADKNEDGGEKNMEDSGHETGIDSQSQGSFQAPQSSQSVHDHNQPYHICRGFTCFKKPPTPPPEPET

[4] = target: 26S proteasome non-ATPase regulatory subunit 14 (Homo sapiens, UniProt O00487); test: inhibition of proteasome subunit RPN11 – biochemical, fluorescence polarization, uHTS hits, confirmation (AID 602368); format: functional
Sequence of 26S proteasome non-ATPase regulatory subunit 14 (O00487 whole entry): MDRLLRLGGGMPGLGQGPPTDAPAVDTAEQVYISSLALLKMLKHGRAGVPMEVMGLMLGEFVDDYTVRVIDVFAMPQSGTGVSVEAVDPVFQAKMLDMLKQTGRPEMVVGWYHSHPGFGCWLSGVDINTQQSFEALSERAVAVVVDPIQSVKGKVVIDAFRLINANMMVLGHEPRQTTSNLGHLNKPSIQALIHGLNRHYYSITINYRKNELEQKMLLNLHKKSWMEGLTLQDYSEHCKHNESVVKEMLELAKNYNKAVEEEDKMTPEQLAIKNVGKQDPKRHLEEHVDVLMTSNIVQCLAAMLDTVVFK

[5] = tested on: Streptococcus sp. 'group A'; test: Streptococcus pyogenes SK(-)GAS viability under kanamycin – luminescence, BacTiterGlo, confirmation, counter-screen for streptokinase expression inhibitor project, dose response (AID 1900); format: functional, organism-based
[6] = target: T1, Streptokinase A (Streptococcus pyogenes serotype M1, UniProt P10520); test: viability-normalized secreted streptokinase activity reduction – plasminogen activation absorbance, OD405, dose response (AID 1914); format: functional, Streptococcus pyogenes M1 GAS;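 also: secreted streptokinase activity via plasminogen activation per viability signal from cell pellet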
T1 sequence (P10520 whole entry): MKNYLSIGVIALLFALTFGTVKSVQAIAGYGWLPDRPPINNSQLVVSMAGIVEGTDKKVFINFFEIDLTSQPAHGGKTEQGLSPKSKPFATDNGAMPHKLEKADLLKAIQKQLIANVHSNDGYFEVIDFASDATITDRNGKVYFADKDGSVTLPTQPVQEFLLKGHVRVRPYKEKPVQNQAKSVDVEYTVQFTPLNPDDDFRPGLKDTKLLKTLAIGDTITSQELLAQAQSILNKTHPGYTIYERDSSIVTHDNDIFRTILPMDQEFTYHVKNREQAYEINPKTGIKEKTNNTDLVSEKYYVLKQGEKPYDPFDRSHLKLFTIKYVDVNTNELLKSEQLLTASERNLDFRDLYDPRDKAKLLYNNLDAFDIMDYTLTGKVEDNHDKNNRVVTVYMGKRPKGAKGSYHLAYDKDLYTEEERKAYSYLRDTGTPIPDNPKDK

[7] = target: T2, Rac GTPase-activating protein 1 (Homo sapiens, UniProt Q9H0H5); test: blockers of MgcRacGAP-driven Rac1 GTP hydrolysis – biochemical, ADP Hunter fluorescence, primary and confirmatory, confirmation (AID 624330); format: functional
T2 sequence (Q9H0H5 whole entry): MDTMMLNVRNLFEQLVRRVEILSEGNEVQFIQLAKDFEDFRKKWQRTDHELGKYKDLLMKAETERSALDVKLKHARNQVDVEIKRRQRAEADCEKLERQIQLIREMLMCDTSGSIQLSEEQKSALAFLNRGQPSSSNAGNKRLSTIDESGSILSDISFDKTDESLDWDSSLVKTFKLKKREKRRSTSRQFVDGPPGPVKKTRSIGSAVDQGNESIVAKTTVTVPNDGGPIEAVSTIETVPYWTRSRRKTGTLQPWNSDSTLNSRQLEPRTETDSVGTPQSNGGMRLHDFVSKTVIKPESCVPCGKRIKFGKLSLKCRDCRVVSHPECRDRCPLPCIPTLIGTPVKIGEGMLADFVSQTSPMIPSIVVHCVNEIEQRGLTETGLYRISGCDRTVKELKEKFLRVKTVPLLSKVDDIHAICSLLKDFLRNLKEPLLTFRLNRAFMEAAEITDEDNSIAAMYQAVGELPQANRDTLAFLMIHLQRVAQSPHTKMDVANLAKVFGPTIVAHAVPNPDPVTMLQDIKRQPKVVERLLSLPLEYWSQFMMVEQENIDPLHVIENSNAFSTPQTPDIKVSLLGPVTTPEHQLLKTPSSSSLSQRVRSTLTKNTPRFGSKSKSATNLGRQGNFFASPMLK

[8] = tested on: Streptococcus; test: GAS UMAA2166 growth inhibition – luminescence, BacTiterGlo, counter-screen for streptokinase expression inhibitor project, dose response (AID 1915); format: functional, organism-based;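 also: potency for reduction of bacterial viability or growth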
[9] = viability loss in HeLa cells – cytotoxicity control for MgcRacGAP inhibitor project, dose response (AID 624300); format: functional
[10] = tested on: H9c2; test: cells; format: functional, cell-based; settings: Rattus norvegicus, H9c2, Myocardium;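 also: confirmatory concentration-response retest of ultra-high-throughput screening hits for modulation of myocardial damage; cell death induced by hydrogen peroxide oxidative stress; compound pretreatment for 60 min then peroxide exposure for 2 h; potency is for protecting the cells against peroxide damage rather than for killing them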
[11] = cells; format: functional, cell-based; settings: HEK-CNG
[12] = target: T3, Galanin receptor type 3 (Homo sapiens, UniProt O60755); test: Fluorescence-based cell-based primary high throughput dose response assay to identify antagonists of the Galanin Receptor 3 (GalR3).; format: functional
T3 sequence (O60755 whole entry): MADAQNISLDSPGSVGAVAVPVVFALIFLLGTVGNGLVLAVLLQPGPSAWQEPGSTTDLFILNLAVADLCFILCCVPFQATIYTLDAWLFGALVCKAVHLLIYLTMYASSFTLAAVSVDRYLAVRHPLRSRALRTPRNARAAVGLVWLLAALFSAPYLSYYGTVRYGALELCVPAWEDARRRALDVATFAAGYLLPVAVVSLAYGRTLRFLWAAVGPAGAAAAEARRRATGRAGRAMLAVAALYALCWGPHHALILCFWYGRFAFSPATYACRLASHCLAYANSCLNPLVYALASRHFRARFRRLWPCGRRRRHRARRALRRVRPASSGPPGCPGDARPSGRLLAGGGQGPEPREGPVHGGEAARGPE

[13] = target: ATP-dependent molecular chaperone HSP82 (Candida albicans (strain WO-1) (Yeast), UniProt C4YTQ8); test: steroid-induced GRE reporter decrease in yeast – S. cerevisiae, luminescence, Hsp90 inhibitor project, dose response (AID 2400); format: functional, cell-based;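 also: beta-galactosidase luminescence from glucocorticoid response element reporter as proxy for Hsp90 function; inhibitor potency where signal loss means Hsp90 inhibition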
Sequence of ATP-dependent molecular chaperone HSP82 (C4YTQ8 whole entry): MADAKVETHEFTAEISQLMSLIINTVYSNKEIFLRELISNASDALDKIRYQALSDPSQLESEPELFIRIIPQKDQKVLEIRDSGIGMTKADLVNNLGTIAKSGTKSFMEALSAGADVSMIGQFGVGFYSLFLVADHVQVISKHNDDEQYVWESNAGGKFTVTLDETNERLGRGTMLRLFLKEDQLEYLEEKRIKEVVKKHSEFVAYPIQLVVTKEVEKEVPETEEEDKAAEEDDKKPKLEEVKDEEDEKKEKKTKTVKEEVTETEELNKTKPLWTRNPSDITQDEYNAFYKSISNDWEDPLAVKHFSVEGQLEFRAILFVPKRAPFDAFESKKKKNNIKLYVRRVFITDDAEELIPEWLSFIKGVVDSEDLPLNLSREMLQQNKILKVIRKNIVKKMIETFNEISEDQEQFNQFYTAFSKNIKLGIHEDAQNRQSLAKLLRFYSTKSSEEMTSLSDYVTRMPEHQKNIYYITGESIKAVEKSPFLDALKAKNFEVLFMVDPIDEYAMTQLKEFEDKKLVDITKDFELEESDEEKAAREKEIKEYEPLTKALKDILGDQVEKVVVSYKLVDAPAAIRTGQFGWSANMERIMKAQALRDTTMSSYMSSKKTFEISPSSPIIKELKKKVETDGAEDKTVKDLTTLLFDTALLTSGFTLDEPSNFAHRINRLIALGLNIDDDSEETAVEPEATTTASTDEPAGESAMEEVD

[14] = fluconazole-exposed Candida albicans growth modulators – fluorescence, retest, confirmation (AID 2467); format: functional, cell-based
[15] = target: T4, Serine/threonine-protein phosphatase (Candida dubliniensis (strain CD36 / CBS 7987 / NCPF 3949 / NRRLY-17841) (Yeast), UniProt B9W6M3); test: blockers of CaCl2-induced CDRE-lacZ signaling – S. cerevisiae, luminescence, secondary, dose response (AID 2388); format: functional, cell-based;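 also: yeast reporter cells carrying a calcineurin-responsive lacZ construct stimulated with calcium chloride; luminescent beta-galactosidase reporter signal in whole cells rather than isolated phosphatase activity; potency for inhibition where a drop in reporter signal means calcineurin blockade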
T4 sequence (B9W6M3 whole entry): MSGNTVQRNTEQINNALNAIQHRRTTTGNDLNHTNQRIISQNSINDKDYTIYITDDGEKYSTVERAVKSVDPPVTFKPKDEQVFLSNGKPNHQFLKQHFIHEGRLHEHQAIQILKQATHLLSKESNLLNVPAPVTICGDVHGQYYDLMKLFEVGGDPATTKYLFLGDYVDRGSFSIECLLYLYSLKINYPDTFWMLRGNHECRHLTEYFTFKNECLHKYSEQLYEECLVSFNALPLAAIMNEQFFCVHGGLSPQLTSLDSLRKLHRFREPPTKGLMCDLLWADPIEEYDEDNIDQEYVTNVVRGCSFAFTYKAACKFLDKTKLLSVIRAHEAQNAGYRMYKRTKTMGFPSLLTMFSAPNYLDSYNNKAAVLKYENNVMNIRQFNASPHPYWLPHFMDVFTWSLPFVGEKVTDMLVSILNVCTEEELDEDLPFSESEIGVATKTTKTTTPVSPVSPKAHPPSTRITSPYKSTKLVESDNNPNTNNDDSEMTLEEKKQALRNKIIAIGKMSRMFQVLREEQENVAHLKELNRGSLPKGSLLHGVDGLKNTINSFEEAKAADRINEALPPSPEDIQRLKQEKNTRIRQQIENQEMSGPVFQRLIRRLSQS

[16] = NIH-3T3 fibroblast cytotoxicity, dose response, cytotoxicity control, cell-based, fluorescence, Alamar Blue, secondary assay (AID 2327); format: functional;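 also: NIH-3T3 mouse fibroblasts cultured with fluconazole at 8 µg/mL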
[17] = target: T5, Corticotropin-releasing factor receptor 2/Corticotropin-releasing factor-binding protein (Homo sapiens, UniProt P24387+Q13324); test: activators of CRF receptor 2 with binding protein – uHTS hits, confirmation (AID 602473); format: functional; settings: read-out: EC50_Mean
T5 sequence (Q13324 whole entry): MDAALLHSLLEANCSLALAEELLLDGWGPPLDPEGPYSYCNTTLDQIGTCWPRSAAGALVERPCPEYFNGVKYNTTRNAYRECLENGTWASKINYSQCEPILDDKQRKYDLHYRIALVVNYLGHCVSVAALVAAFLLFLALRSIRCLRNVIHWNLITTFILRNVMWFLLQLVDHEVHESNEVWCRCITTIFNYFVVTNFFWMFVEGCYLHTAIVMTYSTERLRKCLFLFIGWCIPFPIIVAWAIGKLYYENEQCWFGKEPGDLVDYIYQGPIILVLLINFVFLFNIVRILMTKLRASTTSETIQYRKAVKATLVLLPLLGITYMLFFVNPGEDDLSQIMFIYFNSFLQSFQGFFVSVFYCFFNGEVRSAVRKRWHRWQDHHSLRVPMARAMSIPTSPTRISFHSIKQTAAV
T5 sequence (P24387 whole entry): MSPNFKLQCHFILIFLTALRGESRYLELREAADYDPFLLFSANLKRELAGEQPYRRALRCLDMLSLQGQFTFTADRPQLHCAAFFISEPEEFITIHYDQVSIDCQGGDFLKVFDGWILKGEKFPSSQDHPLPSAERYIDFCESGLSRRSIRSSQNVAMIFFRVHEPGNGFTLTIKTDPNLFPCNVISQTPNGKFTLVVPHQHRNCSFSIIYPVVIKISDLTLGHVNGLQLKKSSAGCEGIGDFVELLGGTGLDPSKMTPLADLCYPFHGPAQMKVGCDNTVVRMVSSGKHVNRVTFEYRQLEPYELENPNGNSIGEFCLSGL

[18] = target: T6, DNA repair protein RAD52 homolog (Homo sapiens, UniProt P43351); format: functional, biochemical
T6 sequence (P43351 whole entry): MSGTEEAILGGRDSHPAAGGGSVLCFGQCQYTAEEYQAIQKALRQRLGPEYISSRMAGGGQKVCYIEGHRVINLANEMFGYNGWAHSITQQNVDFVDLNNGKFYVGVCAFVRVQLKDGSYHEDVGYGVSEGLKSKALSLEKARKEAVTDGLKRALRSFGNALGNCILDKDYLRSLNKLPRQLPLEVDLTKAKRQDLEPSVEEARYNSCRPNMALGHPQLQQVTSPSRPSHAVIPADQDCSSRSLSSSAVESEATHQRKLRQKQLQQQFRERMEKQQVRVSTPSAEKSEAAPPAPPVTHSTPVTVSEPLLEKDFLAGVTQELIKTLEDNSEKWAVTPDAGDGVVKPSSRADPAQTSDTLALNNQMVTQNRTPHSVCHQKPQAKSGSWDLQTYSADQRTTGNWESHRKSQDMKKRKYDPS

[19] = target: T7, Small ubiquitin-related modifier 1 (Homo sapiens, UniProt P63165); test: SUMO1 protein-protein binding blockers, potency – biochemical, FRET, dose response (AID 624383); format: functional; settings: read-out: IC50_Mean
T7 sequence (P63165 whole entry): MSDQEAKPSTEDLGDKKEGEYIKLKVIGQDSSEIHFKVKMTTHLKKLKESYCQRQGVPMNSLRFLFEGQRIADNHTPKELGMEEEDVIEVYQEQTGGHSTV

[20] = target: T7, Small ubiquitin-related modifier 1; test: SUMO1 protein interaction blockers, potency – biochemical, fluorescence polarization, uHTS hits, dose response (AID 624382); format: functional; settings: read-out: IC50_Mean
[21] = Luminescence Cell-Based Dose Retest to Confirm Inhibitors of Cancer Stem Cells. [Related pubchem assays (depositor defined):AID2717, AID2721]; format: functional; settings: Homo sapiens
[22] = target: T8, Heat shock factor protein 1 (Mus musculus, UniProt P38532); test: enhancement of HSF1-driven luciferase signal – cell-based, NIH3T3, luminescence, dose retest, confirmation (AID 435004); format: functional;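 also: stress induced by proteasome inhibitor MG132 added 30 min after compound; luciferase reporter driven by HSF1 response element in NIH3T3 cells; actives raise luminescence as potentiators of the MG132 stress response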
T8 sequence (P38532 whole entry): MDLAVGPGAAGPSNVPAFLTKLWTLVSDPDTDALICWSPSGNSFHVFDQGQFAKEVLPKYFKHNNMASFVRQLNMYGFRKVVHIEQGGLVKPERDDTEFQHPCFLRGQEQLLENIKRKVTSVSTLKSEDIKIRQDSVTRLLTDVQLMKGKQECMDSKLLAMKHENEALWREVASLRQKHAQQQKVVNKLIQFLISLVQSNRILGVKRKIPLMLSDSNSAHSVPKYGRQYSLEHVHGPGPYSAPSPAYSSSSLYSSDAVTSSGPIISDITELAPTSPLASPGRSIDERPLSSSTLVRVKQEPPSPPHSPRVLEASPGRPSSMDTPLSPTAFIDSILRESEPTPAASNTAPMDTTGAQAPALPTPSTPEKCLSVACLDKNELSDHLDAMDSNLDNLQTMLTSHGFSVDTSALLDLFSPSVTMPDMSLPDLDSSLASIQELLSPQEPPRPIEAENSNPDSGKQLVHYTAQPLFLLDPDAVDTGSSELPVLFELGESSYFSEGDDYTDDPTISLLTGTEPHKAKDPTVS

Sequence of 72 kDa type IV collagenase (P08253 whole entry): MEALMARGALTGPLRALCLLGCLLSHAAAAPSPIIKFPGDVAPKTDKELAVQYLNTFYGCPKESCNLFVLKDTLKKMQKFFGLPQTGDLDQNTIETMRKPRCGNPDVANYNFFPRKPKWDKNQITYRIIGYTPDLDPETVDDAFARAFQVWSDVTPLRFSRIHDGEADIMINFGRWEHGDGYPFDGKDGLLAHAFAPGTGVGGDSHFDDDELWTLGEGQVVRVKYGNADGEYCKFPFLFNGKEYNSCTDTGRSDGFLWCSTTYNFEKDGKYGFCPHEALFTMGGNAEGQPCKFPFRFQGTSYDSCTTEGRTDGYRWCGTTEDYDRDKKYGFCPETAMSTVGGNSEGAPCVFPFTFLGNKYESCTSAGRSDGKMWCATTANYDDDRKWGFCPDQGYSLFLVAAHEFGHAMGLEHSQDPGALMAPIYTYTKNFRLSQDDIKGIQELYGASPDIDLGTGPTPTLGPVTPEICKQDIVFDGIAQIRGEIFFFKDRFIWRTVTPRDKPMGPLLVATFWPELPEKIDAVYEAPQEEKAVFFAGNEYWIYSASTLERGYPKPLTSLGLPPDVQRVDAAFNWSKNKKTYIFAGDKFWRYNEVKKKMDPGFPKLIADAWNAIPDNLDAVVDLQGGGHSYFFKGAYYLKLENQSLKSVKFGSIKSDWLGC

O=C1NC(=O)N(c2ccc(Cl)cc2)C(=O)/C1=C\c1ccc(Sc2nc3ccccc3[nH]2)o1
IC50 [1]: > 100 µM (inactive)
IC50 [2]: 44.9 µM (active)
IC50 [3]: 18.8 µM (active)
IC50 [4]: 42.2 µM (active)

COc1ccc(-n2c(/C=C/c3ccc(O)c(OC)c3)nc3ccccc3c2=O)cc1
EC50 [5]: 22 µM (active)
EC50 [6]: > 150 µM (not active)
IC50 [7]: 52.4 µM (active)
EC50 [8]: 26.5 µM (active)
CC50 [9]: 71 µM (active)
IC50 [10]: > 79 µM (inactive)

COCCn1c(C)cc(C(=O)COc2nc3ccccc3nc2C)c1C
EC50 [11]: > 29.9 µM (inactive)
IC50 [12]: 3.67 µM (active)

CCc1nnc(NC(=O)CSc2nc(SC)ns2)s1
EC50 [13]: > 160 µM (inactive)
EC50 [14]: 2.88 µM (active)
EC50 [15]: > 180 µM (inactive)
EC50 [16]: > 160 µM (inactive)
EC50 [17]: > 53 µM (inactive)

CN1C=CC(=CC=C2C=CC(=O)C=C2)C=C1
IC50 [1]: > 100 µM (inactive)
IC50 [2]: 62.7 µM (active)
IC50 [7]: 18.4 µM (active)
IC50 [4]: 31.2 µM (active)

c1cc(OCCCN2CCCCC2)ccc1CN1CCCCC1 [JNJ-5207852]
AC50 [18]: 10.3 µM (active)

Cn1cc([N+](=O)[O-])c(C(=O)Nc2ccc(-c3nc4ccccc4o3)cc2)n1
IC50 [19]: 17.3 µM (active)
IC50 [20]: > 66.6 µM (inactive)
AC50 [21]: 2.45 µM (active)
EC50 [22]: 6.61 µM (active)

O=C(Nc1nc(-c2ccc(Cl)cc2Cl)cs1)c1ccc(OCC2CCCO2)cc1 (centres undefined)
EC50 [11]: > 29.9 µM (inactive)
IC50 [12]: 1.07 µM (active)

CCN1CCc2nc(N)sc2C1
AC50 [18]: 23.4 µM (active)
